# Patent US20190336496A1, “SELECTIVE BCL-2 INHIBITORS IN COMBINATION WITH AN ANTI-PD-1 OR AN ANTI-PD-L1 ANTIBODY FOR THE TREATMENT OF CANCERS” (AbbVie Inc., priority 2018, published 2019)
# How the values were obtained:
# EMT6 tumors = assay: EMT6 mouse mammary carcinoma syngeneic model; type: in vivo; conditions: for complete responses (CR): EMT6, groups of 10 mice
# Protocol: All experiments were conducted in compliance with the National Institutes of Health Guide for Care and Use of Laboratory Animals guidelines in a facility accredited by the Association for the Assessment and Accreditation of Laboratory Animal Care (AAALAC). BALB/c, C57BL/6, CB6F1 (C57BL/6 bred with BALB/c) and SCID mice were obtained from Charles River (Wilmington, Mass.). SCID mice have severe combined immune deficiency (SCID) and are characterized by an absence of functional T- and B-cells.
# EMT6, mouse mammary carcinoma and CT26, mouse colon carcinoma, cell lines were obtained from ATCC (Manassas, Va.). MC38, mouse colon carcinoma cell line was obtained from National Cancer Institute (NCI).
# Compound (I),venetoclax, was formulated in 10% ethanol+30% PEG 400+60% Phosal® 50PG. Venetoclax was administered orally once a day for 14 days at 50 mg/kg/day.
# 1×10^5 CT26, EMT6 or MC38 cells were subcutaneously injected with Matrigel into the flanks of BALB/c, CB6F1 or C57BL/6 mice, respectively. Seven days later, mice were randomized to treatment groups of vehicle, venetoclax, anti-PD-1/PD-L1 or the combination of venetoclax and anti-PD-1/PD-L1. Tumor volume was determined via measurements of the length (L) and width (W) of the tumor with electronic calipers and the volume was calculated according to the following equation: V=L×W2/2 using Study Director Version 2.1.11 (Studylog Systems Inc., South San Francisco). Complete response (CR) was defined as reduction in tumor volume to ≤25 mm^3 over at least 3 successive measurements.
# [1] = test system: CD4 T-cells co-cultured with MoDCs; assay: Mixed lymphocyte reaction (MLR) assay; type: cell-based, human; conditions: for CD3+ T cell numbers / production of IFNγ (secreted) / proportion of CD3+ T-cells that produce IFNγ: MLR, BCL-2 inhibitors at 1 μM
# Protocol: Mixed Lymphocyte Reaction (MLR) assay was used to examine venetoclax effect on T-cell function in response to immune stimulation. Monocytic-derived dendritic cells (MoDCs) were generated from fresh human blood. PBMCs were isolated using a Ficoll gradient. The PBMCs were allowed to adhere for 2 hours. After 2 hours, cells in suspension were removed. Fresh AIM V™ medium (ThermoFisher cat. #12055091) supplemented with granulocyte-macrophage colony-stimulating factor (GM-CSF, 80 ng/mL) and IL-4 (50 ng/mL) was added to the culture. After 5 days, the MoDCs were stimulated with IL-1α and TNF-α (0.2 ng/mL each) for 48 hours to increase major histocompatibility complex class II molecules (MHCII) expression. These activated MoDCs were then co-cultured with CD4 T-cells (Biospecialty Corp.) at a ratio of 10:1 (T-cells:MoDCs) in a mixed lymphocyte reaction (MLR). The cells were treated with control IgG (Isotype) or anti-PD-1 antibody (nivolumab or ABBV-181 along with either dimethyl sulfoxide (DMSO) or BCL-2 inhibitors venetoclax (Compound (I)) or Compounds (II) or (III). Antibodies were added at 10 μg/mL and the compound concentrations of venetoclax were as indicated in FIG. 11. The MLR was cultured for 5 days, after which the cells were analyzed by flow cytometry using an LSRFortessa™ X-20 instrument (BD Biosciences) to determine cell number and functional cytokine (IFNγ) responses.
Molecule,CD3+ T cell numbers [1],production of IFNγ (secreted) [1],proportion of CD3+ T-cells that produce IFNγ [1],also measured
"anti hu PD-L1 YW243.55.S70 [mu IgG2 a/k]: mouse anti-PD-L1 antibody, heavy chain SEQ ID NO: 5, light chain SEQ ID NO: 6",–,–,–,"complete responses (CR) (EMT6 tumors): 3; complete responses (CR) (EMT6 tumors; listed as anti-PD-L1 antibody): 3/10; tumor growth inhibition (TGI) (EMT6 tumors; EMT6 in CB6F1 mice, venetoclax 50 mg/kg/day orally 14 days, antibody 10 mg/kg IP every 4 days, 3 times, day 25): 89%"
"nivolumab: anti-PD-1 antibody, heavy chain SEQ ID NO: 9, light chain SEQ ID NO: 10",–,–,–,"proportion of CD4+ T-cells that produce IFNγ ([1]; MLR 5 days, with isotype control or anti-PD-1 antibody): increased; number of CD4+ T-cells ([1]; MLR cultured 5 days, antibodies at 10 μg/mL): increased"
Cn1ccc2cc(N(C(=O)c3cc(-c4cc5c(cc4C(=O)N4Cc6ccccc6C[C@H]4CN4CCOCC4)OCO5)n4c3CCCC4)c3ccc(O)cc3)ccc21 [Compound (II)],declined comparably,not antagonized,increase,–
O=C(c1cc(-c2cc3c(cc2C(=O)N2Cc4ccccc4C[C@H]2CN2CCOCC2)OCO3)n2c1CCCC2)N(c1ccccc1)c1ccc(O)cc1 [Compound (III)],declined comparably,not antagonized,increase,–
